Reference: patent US7645752B2, “Sulfonyl substituted 1H-indoles as ligands for the 5-hydroxytryptamine receptors” (Wyeth LLC, priority 2006, dated 2010)
Where a name gives a salt, the structure may show the parent alone.

Tested on: not given
Test: not given
Settings: not given

Compound	melting point [°C]
CN(C)CCc1ccc2[nH]cc(S(=O)(=O)c3ccccc3)c2c1 (as salt: hydrochloride) [Example 1, N,N-dimethyl-N-{2-[3-(phenylsulfonyl)-1H-indol-5-yl]ethyl}amine]	251
CCCNCCc1ccc2[nH]cc(S(=O)(=O)c3ccccc3)c2c1 (as salt: hydrochloride) [Example 2, N-{2-[3-(phenylsulfonyl)-1H-indol-5-yl]ethyl}-N-propylamine]	189 to 192

Molecular target: T1, human cloned 5-HT6 receptors (Homo sapiens, UniProt P50406)
T1 construct: expressed in transfected cells; host or cells: HeLa cells
Test: 5-HT6 binding affinity, [3H]-LSD displacement on membranes of Hela cells
Settings: not given
Procedure: The affinity of test compounds for the 5-HT6 receptor is evaluated in the following manner. Cultured Hela cells expressing human cloned 5-HT6 receptors are harvested and centrifuged at low speed (1,000×g) for 10.0 min to remove the culture media. The harvested cells are suspended in half volume of fresh physiological phosphate buffered saline solution and recentrifuged at the same speed. This operation is repeated. The collected cells are then homogenized in ten volumes of 50 mM Tris.HCl (pH 7.4) and 0.5 mM EDTA. The homogenate is centrifuged at 40,000×g for 30.0 min and the precipitate is collected. The obtained pellet is resuspended in 10 volumes of Tris.HCl buffer and recentrifuged at the same speed. The final pellet is suspended in a small volume of Tris.HCl buffer and the tissue protein content is determined in aliquots of 10-25 microliter volumes. […] The volume of the suspended cell membranes is adjusted to give a tissue protein concentration of 1.0 mg/mL of suspension. The prepared membrane suspension (10 times concentrated) is aliquoted in 1.0 mL volumes and stored at −70° C. until used in subsequent binding experiments.
Binding experiments are performed in a 96 well microtiter plate format in a total volume of 200 microliters. […] The test compounds are added in 20.0 microliter volume.
The bound complex caught on the filter disk is allowed to air dry and the radioactivity is measured in a Packard TopCount® equipped with six photomultiplier detectors, after the addition of 40.0 microliter Microscint®-20 scintillant to each shallow well.
Binding in the presence of varying concentrations of test compound is expressed as a percentage of specific binding in the absence of test compound. The results are plotted as log % bound versus log concentration of the test compound.

T1 sequence (P50406 whole entry): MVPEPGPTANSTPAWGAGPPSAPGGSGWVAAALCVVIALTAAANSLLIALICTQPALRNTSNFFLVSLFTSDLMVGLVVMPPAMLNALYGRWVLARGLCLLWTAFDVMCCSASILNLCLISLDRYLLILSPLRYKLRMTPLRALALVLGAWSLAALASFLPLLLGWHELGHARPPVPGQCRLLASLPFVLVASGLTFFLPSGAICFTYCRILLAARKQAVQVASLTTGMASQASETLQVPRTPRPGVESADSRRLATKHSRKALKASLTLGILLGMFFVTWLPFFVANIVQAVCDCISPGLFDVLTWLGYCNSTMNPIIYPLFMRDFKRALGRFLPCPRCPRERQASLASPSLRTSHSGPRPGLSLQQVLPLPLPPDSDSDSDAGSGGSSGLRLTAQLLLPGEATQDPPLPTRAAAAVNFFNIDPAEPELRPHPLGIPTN

Compound	Ki [nM]
CCNCCc1ccc2c(S(=O)(=O)c3ccccc3)c[nH]c2c1 [Example 88, N-ethyl-N-{2-[3-(phenylsulfonyl)-1H-indol-6-yl]ethyl}amine]	96.3

Same assay, conditions: Table 1; 5-HT6 binding, at 1 micromole; read-out: % inhibition at 1 micromole

Compound	inhibition at 1 µM [%]
CC(C)(C)CNCCc1cccc2[nH]cc(S(=O)(=O)c3cccc(F)c3)c12 [Example 81, N-(2,2-dimethylpropyl)-N-{2-[3-(3-fluorophenylsulfonyl)-1H-indol-4-yl]ethyl}amine]	74
O=S(=O)(c1cccc(F)c1)c1c[nH]c2cccc(CCNCC3CCCO3)c12 (stereo not drawn) [Example 82, N-{2-[3-(3-fluorophenylsulfonyl)-1H-indol-4-yl]ethyl}-N-((tetrahydrofur-2-yl)methyl)amine]	72
CN(C)CCCNCCc1cccc2[nH]cc(S(=O)(=O)c3cccc(F)c3)c12 [Example 83, N′-{2-[3-(3-Fluorophenylsulfonyl)-1H-indol-4-yl]-ethyl}-N,N-dimethyl-propane-1,3-diamine]	42
CN(CCO)CCc1cccc2[nH]cc(S(=O)(=O)c3cccc(F)c3)c12 [Example 84, 2-({2-[3-(3-Fluorophenylsulfonyl)-1H-indol-4-yl]-ethyl}-methyl-amino)-ethanol]	73
CC(C)NCCc1ccc2c(S(=O)(=O)c3ccccc3)c[nH]c2c1 [Example 90, N-{2-[3-(phenylsulfonyl)-1H-indol-6-yl]ethyl}propan-2-amine]	78
O=S(=O)(c1ccccc1)c1c[nH]c2cc(CCNC3CCC3)ccc12 [Example 92, N-{2-[3-(phenylsulfonyl)-1H-indol-6-yl]ethyl}cyclobutanamine]	75
O=S(=O)(c1ccccc1)c1c[nH]c2cc(CCNC3CCCC3)ccc12 [Example 93, N-{2-[3-(phenylsulfonyl)-1H-indol-6-yl]ethyl}cyclopentanamine]	71
O=S(=O)(c1ccccc1)c1c[nH]c2cc(CCNC3CCCCC3)ccc12 [Example 94, N-{2-[3-(phenylsulfonyl)-1H-indol-6-yl]ethyl}cyclohexanamine]	51
CN(CCc1ccc2c(S(=O)(=O)c3ccccc3)c[nH]c2c1)C1CCCCC1 [Example 96, N-cyclohexyl-N-methyl-N-{2-[3-(phenylsulfonyl)-1H-indol-6-yl]ethyl}amine]	75
O=S(=O)(c1ccccc1)c1c[nH]c2cc(CCN3CCCC3)ccc12 [Example 98, 3-(phenylsulfonyl)-6-(2-pyrrolidin-1-ylethyl)-1H-indole]	76
O=S(=O)(c1ccccc1)c1c[nH]c2cc(CCN3CCCCC3)ccc12 [Example 99, 3-(phenylsulfonyl)-6-(2-piperidin-1-ylethyl)-1H-indole]	79
O=S(=O)(c1ccccc1)c1c[nH]c2cccc(CCC3CNCCO3)c12 (stereo not drawn) [Example 100, 4-(2-morpholin-6-ylethyl)-3-(phenylsulfonyl)-1H-indole]	54
O=S(=O)(c1ccccc1)c1c[nH]c2cc(CCN3CCNCC3)ccc12 [Example 101, 3-phenylsulfonyl-6-(2-piperazin-1-yl-ethyl)-1H-indole]	55
CC(C)CNCCc1ccc2c(S(=O)(=O)c3ccccc3)c[nH]c2c1 [Example 102, N-isobutyl-N-{2-[3-(phenylsulfonyl)-1H-indol-6-yl]ethyl}amine]	72
CCC(CC)NCCc1ccc2c(S(=O)(=O)c3ccccc3)c[nH]c2c1 [Example 103, (1-Ethyl-propyl)-{2-[3-(phenylsulfonyl)-1H-indol-6-yl]-ethyl}-amine]	63
CCC(C)CNCCc1ccc2c(S(=O)(=O)c3ccccc3)c[nH]c2c1 (stereo not drawn) [Example 104, {2-[3-(phenylsulfonyl)-1H-indol-6-yl]-ethyl}-(2-methyl-butyl)-amine]	69
CC(NCCc1ccc2c(S(=O)(=O)c3ccccc3)c[nH]c2c1)C(C)(C)C (stereo not drawn) [Example 105, N-{2-[3-(phenylsulfonyl)-1H-indol-6-yl]ethyl}-N-(1,2,2-trimethylpropyl)amine]	55
CC(C)(C)CNCCc1ccc2c(S(=O)(=O)c3ccccc3)c[nH]c2c1 [Example 106, N-(2,2-dimethylpropyl)-N-{2-[3-(phenylsulfonyl)-1H-indol-6-yl]ethyl}amine]	67

Same assay, conditions: Table 1; [3H]-LSD 3.0 nM, Hela cell membranes; read-out: Ki (nM) @ 5-HT6 receptor

Compound	Ki [nM]
CCC(C)CNCCc1cccc2[nH]cc(S(=O)(=O)c3cccc(F)c3)c12 (stereo not drawn) [Example 79, {2-[3-(3-Fluorophenylsulfonyl)-1H-indol-4-yl]-ethyl}-(2-methyl-butyl)-amine]	120
CC(NCCc1cccc2[nH]cc(S(=O)(=O)c3cccc(F)c3)c12)C(C)(C)C (stereo not drawn) [Example 80, N-{2-[3-(3-fluorophenylsulfonyl)-1H-indol-4-yl]ethyl}-N-(1,2,2-trimethylpropyl)amine]	13
NCCc1cccc2[nH]cc(S(=O)(=O)c3cccc(F)c3)c12 [Example 85, {2-[3-(3-fluorophenylsulfonyl)-1H-indol-4-yl]ethyl}amine]	348
CN(C)CCc1ccc2c(S(=O)(=O)c3ccccc3)c[nH]c2c1 [Example 86, N,N-dimethyl-N-{2-[3-(phenylsulfonyl)-1H-indol-6-yl]ethyl}amine]	41.3
CNCCc1ccc2c(S(=O)(=O)c3ccccc3)c[nH]c2c1 [Example 87, N-methyl-N-{2-[3-(phenylsulfonyl)-1H-indol-6-yl]ethyl}amine]	10.5
CCCNCCc1ccc2c(S(=O)(=O)c3ccccc3)c[nH]c2c1 [Example 89, N-{2-[3-(phenylsulfonyl)-1H-indol-6-yl]ethyl}-N-propylamine]	150
O=S(=O)(c1ccccc1)c1c[nH]c2cc(CCNC3CC3)ccc12 [Example 91, N-{2-[3-(phenylsulfonyl)-1H-indol-6-yl]ethyl}cyclopropanamine]	41
CCN(C)CCc1ccc2c(S(=O)(=O)c3ccccc3)c[nH]c2c1 [Example 95, N-ethyl-N-methyl-N-{2-[3-(phenylsulfonyl)-1H-indol-6-yl]ethyl}amine]	118
CCN(CC)CCc1ccc2c(S(=O)(=O)c3ccccc3)c[nH]c2c1 [Example 97, N,N-diethyl-N-{2-[3-(phenylsulfonyl)-1H-indol-6-yl]ethyl}amine]	12.3
O=S(=O)(c1ccccc1)c1c[nH]c2cc(CCNCC3CCCO3)ccc12 (stereo not drawn) [Example 107, N-{2-[3-(phenylsulfonyl)-1H-indol-6-yl]ethyl}-N-((tetrahydrofur-2-yl)methyl)amine]	85
O=S(=O)(c1ccccc1)c1c[nH]c2cc(CCN3CCC3)ccc12 [Example 108, 6-(2-Azetidin-1-yl-ethyl)-3-phenylsulfonyl-1H-indole]	74
NCCc1ccc2c(S(=O)(=O)c3ccccc3)c[nH]c2c1 [Example 109, {2-[3-(phenylsulfonyl)-1H-indol-6-yl]ethyl}amine]	10
